We go through one compound from patent publication US6365626B1, “BTK inhibitors and methods for their identification and use” (Parker Hughes Institute, priority 1998, dated 2002).

The structures appear in SMILES notation.

The target in this assay is T1, BTK (Homo sapiens, UniProt Q06187).
T1 construct: expressed in transfected cells
Description: BTK inhibition assay of second generation LFM analogs. In kind it is biochemical. As to conditions: Table 4.

T1 sequence (Q06187 2-659): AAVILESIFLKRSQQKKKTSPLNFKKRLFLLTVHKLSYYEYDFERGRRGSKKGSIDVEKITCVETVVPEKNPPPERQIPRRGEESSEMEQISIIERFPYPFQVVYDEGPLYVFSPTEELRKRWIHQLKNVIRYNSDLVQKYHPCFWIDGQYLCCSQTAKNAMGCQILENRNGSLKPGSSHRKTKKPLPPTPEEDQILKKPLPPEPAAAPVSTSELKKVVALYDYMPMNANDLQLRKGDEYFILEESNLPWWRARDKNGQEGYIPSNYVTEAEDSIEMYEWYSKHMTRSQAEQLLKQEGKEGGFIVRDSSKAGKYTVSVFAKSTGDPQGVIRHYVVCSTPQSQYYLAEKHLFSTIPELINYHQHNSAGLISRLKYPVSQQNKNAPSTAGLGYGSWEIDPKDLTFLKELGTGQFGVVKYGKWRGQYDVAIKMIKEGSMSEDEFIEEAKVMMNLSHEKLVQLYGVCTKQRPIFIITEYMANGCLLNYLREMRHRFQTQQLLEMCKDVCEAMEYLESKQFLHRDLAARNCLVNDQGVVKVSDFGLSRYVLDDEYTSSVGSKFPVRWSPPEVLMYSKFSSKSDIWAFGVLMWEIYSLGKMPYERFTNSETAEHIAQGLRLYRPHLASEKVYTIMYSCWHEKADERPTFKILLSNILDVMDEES

With `CC(O)=C(C#N)C(=O)Nc1ccc(Cl)cc1Cl` [LFM-A20, α-Cyano-β-hydroxy-β-methyl-N-(2,4-dichlorophenyl)propenamide], the IC50 was determined as 37 µM.
